Legend:
Conditions in all cases: 48 h
P12-Ichikawa [1] = assay: AUC of viability dose-response curve (% viability x log10 dose units); higher = less sensitive
Outline: (§1)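 Leukemia cells adapted to each medium (500 or 1000 cells/well, 1536-well plates) were exposed to library compounds in DMSO for 48 h at 37°C at 11 threefold doses, 47 μM to 0.79 nM. Luminescence by CellTiter-Glo One was normalised per plate to DMSO and cell-free wells, then fitted with a four-parameter log-logistic curve on log10 dose. Curves above full viability were scaled and quality-control failures removed before area under the curve was integrated by trapezoidal rule.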

SEM cells [2] = assay: as above
Outline: as §1

NOMO1 [3] = assay: as above
Outline: as §1

P12-Ichikawa [4] = assay: cell viability relative to DMSO control; higher = less cytotoxic
Outline: (§2)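 In 1536-well plates, 5 μl of leukemia cells were seeded per well: 500 cells/well for NOMO1 or SEM and 1000 cells/well for P12-Ichikawa. Each line had first been adapted for at least four passages in each medium. Library compounds in DMSO were pin-dosed at 11 threefold concentrations between 47 μM and 0.79 nM, and CellTiter-Glo One luminescence was read after 48 h at 37°C. Viability is a per-plate percentage relative to DMSO wells, with cell-free wells as background.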

SEM cells [5] = assay: as above
Outline: as §2

NOMO1 [6] = assay: as above
Outline: as §2

COCCOc1nc(-c2ccc(Cl)c(Cl)c2)n(-c2ccc(NC(=O)CCl)cc2)n1
AUC of viability dose-response curve
Conditions | NOMO1 [3] | P12-Ichikawa [1] | SEM cells [2]
HPLM + 10% dialyzed FBS | 460 | 469 | 444
RPMI 5 mM glucose + 10% FBS | 408 | 450 | 430
RPMI 5 mM glucose + 10% dialyzed FBS | 433 | 421 | 430

cell viability [%]
Conditions | NOMO1 [6] | P12-Ichikawa [4] | SEM cells [5]
HPLM + 10% dialyzed FBS, 0.000781 µM | 92.5 | 96.6 | 85.5
HPLM + 10% dialyzed FBS, 0.00234 µM | 113 | 97.3 | 95.4
HPLM + 10% dialyzed FBS, 0.00702 µM | 110 | 102 | 87.5
HPLM + 10% dialyzed FBS, 0.0211 µM | 114 | 103 | 103
HPLM + 10% dialyzed FBS, 0.0632 µM | 113 | 103 | 104
HPLM + 10% dialyzed FBS, 0.19 µM | 115 | 106 | 103
HPLM + 10% dialyzed FBS, 0.569 µM | 96.6 | 99.1 | 94.2
HPLM + 10% dialyzed FBS, 1.71 µM | 110 | 104 | 97.6
HPLM + 10% dialyzed FBS, 5.12 µM | 87.2 | 84.4 | 83.6
HPLM + 10% dialyzed FBS, 15.4 µM | 85 | 99.8 | 83.1
HPLM + 10% dialyzed FBS, 46.1 µM | 107 | 98.5 | 84.6
RPMI 5 mM glucose + 10% FBS, 0.000781 µM | 78.3 | 89.4 | 80
RPMI 5 mM glucose + 10% FBS, 0.00234 µM | 86.9 | 101 | 106
RPMI 5 mM glucose + 10% FBS, 0.00702 µM | 84.4 | 90.1 | 98.5
RPMI 5 mM glucose + 10% FBS, 0.0211 µM | 82.7 | 104 | 89.9
RPMI 5 mM glucose + 10% FBS, 0.0632 µM | 85 | 98.9 | 102
RPMI 5 mM glucose + 10% FBS, 0.19 µM | 87.6 | 101 | 85.7
RPMI 5 mM glucose + 10% FBS, 0.569 µM | 80.7 | 93.4 | 95.4
RPMI 5 mM glucose + 10% FBS, 1.71 µM | 84.9 | 107 | 88
RPMI 5 mM glucose + 10% FBS, 5.12 µM | 91.3 | 79.7 | 83.4
RPMI 5 mM glucose + 10% FBS, 15.4 µM | 92.6 | 79.9 | 79.1
RPMI 5 mM glucose + 10% FBS, 46.1 µM | 86.7 | 88.7 | 80.6
RPMI 5 mM glucose + 10% dialyzed FBS, 0.000781 µM | 82.7 | 84.1 | 92.2
RPMI 5 mM glucose + 10% dialyzed FBS, 0.00234 µM | 92.1 | 92.2 | 91.4
RPMI 5 mM glucose + 10% dialyzed FBS, 0.00702 µM | 93.5 | 86.1 | 96.4
RPMI 5 mM glucose + 10% dialyzed FBS, 0.0211 µM | 83.7 | 94.6 | 91
RPMI 5 mM glucose + 10% dialyzed FBS, 0.0632 µM | 97.4 | 91.2 | 95.1
RPMI 5 mM glucose + 10% dialyzed FBS, 0.19 µM | 87.5 | 93.7 | 102
RPMI 5 mM glucose + 10% dialyzed FBS, 0.569 µM | 96.9 | 98.9 | 94.2
RPMI 5 mM glucose + 10% dialyzed FBS, 1.71 µM | 93.9 | 86.4 | 81.6
RPMI 5 mM glucose + 10% dialyzed FBS, 5.12 µM | 86.4 | 76 | 80.2
RPMI 5 mM glucose + 10% dialyzed FBS, 15.4 µM | 79.7 | 77.8 | 80.2
RPMI 5 mM glucose + 10% dialyzed FBS, 46.1 µM | 104 | 86.9 | 85.1

O=C(O)CCn1c2c(c3ccccc31)C[C@H](N[S+](=O)([O-])c1ccc(F)cc1)CC2
AUC of viability dose-response curve
Conditions | NOMO1 [3] | P12-Ichikawa [1] | SEM cells [2]
HPLM + 10% dialyzed FBS | 458 | 465 | 471
RPMI 5 mM glucose + 10% FBS | 457 | 468 | 449
RPMI 5 mM glucose + 10% dialyzed FBS | 448 | 453 | 472

cell viability [%]
Conditions | NOMO1 [6] | P12-Ichikawa [4] | SEM cells [5]
HPLM + 10% dialyzed FBS, 0.000781 µM | 115 | 117 | 112
HPLM + 10% dialyzed FBS, 0.00234 µM | 112 | 113 | 115
HPLM + 10% dialyzed FBS, 0.00702 µM | 120 | – | 112
HPLM + 10% dialyzed FBS, 0.0211 µM | 124 | 110 | 110
HPLM + 10% dialyzed FBS, 0.0632 µM | 113 | 113 | 111
HPLM + 10% dialyzed FBS, 0.19 µM | 109 | 106 | 106
HPLM + 10% dialyzed FBS, 0.569 µM | 104 | 113 | 96.8
HPLM + 10% dialyzed FBS, 1.71 µM | 105 | 111 | 126
HPLM + 10% dialyzed FBS, 5.12 µM | 116 | 106 | 118
HPLM + 10% dialyzed FBS, 15.4 µM | 88.3 | 100 | 107
HPLM + 10% dialyzed FBS, 46.1 µM | 72.2 | 73.6 | 104
RPMI 5 mM glucose + 10% FBS, 0.000781 µM | 102 | 119 | 120
RPMI 5 mM glucose + 10% FBS, 0.00234 µM | 105 | 120 | 102
RPMI 5 mM glucose + 10% FBS, 0.00702 µM | 108 | 121 | 118
RPMI 5 mM glucose + 10% FBS, 0.0211 µM | 98.2 | 121 | 109
RPMI 5 mM glucose + 10% FBS, 0.0632 µM | 114 | 120 | 122
RPMI 5 mM glucose + 10% FBS, 0.19 µM | 99 | 122 | 108
RPMI 5 mM glucose + 10% FBS, 0.569 µM | 99.2 | 122 | 86.7
RPMI 5 mM glucose + 10% FBS, 1.71 µM | 98.7 | 111 | 117
RPMI 5 mM glucose + 10% FBS, 5.12 µM | 94.2 | 114 | 104
RPMI 5 mM glucose + 10% FBS, 15.4 µM | 102 | 115 | 107
RPMI 5 mM glucose + 10% FBS, 46.1 µM | 90.5 | 95.5 | 96.4
RPMI 5 mM glucose + 10% dialyzed FBS, 0.000781 µM | 99.2 | 110 | 112
RPMI 5 mM glucose + 10% dialyzed FBS, 0.00234 µM | 107 | 116 | 119
RPMI 5 mM glucose + 10% dialyzed FBS, 0.00702 µM | 120 | 116 | 119
RPMI 5 mM glucose + 10% dialyzed FBS, 0.0211 µM | 102 | 114 | 123
RPMI 5 mM glucose + 10% dialyzed FBS, 0.0632 µM | 95.8 | 115 | 122
RPMI 5 mM glucose + 10% dialyzed FBS, 0.19 µM | 102 | 103 | 120
RPMI 5 mM glucose + 10% dialyzed FBS, 0.569 µM | 109 | 109 | 90.6
RPMI 5 mM glucose + 10% dialyzed FBS, 1.71 µM | 98.1 | 108 | 106
RPMI 5 mM glucose + 10% dialyzed FBS, 5.12 µM | 103 | 102 | 128
RPMI 5 mM glucose + 10% dialyzed FBS, 15.4 µM | 91.8 | 92.2 | 120
RPMI 5 mM glucose + 10% dialyzed FBS, 46.1 µM | 85.9 | 66.9 | 124

Source: the supplement of paper PMC11451515
